One assay concerns the target T1, SMARCA2 (Homo sapiens, UniProt P51531).
T1 construct: endogenous in cells; host or cells: RKO cells (CRL-2577, ATCC)
Briefly: SMARCA2 degradation analysis by imaging in RKO cells (DC50 A2). It is filed as cell-based. As to conditions: tables 69, 70, 73, 76-78. The procedure: (§1) Determination of SMARCA2 and SMARCA4 Degradation (DC50 A2 and A4 [nM])
(§2) Protein Degradation Assays for SMARCA2 and SMARCA4
(§3) For degradation analysis by imaging, 1250 RKO cells (CRL-2577, ATCC) per well were seeded into 60 μL DMEM (Sigma Aldrich) supplemented with 10% FBS (Hyclone) in 384-well flat bottom plates (CellCarrier Ultra, Perkin Elmer) and incubated at 37° C. and 5% CO2 in a humidified atmosphere overnight. Compounds were added the next day using an Access Labcyte Workstation with a Labcyte Echo 550 or 555 acoustic dispenser and incubated with the cells for 4 or 24 h. Cells were fixed by adding 25 μL fixation buffer (7.4% formaldehyde (Sigma Aldrich F8775), 0.2% Triton TX100 (Sigma Aldrich F93443) in PBS) for 15 minutes at room temperature. After aspirating the fixing solution, the cells were washed once with 25 μL PBS and 25 μL of Blocking Buffer (10% Goat Serum in PBS) were added to each well and incubated for 30 minutes. Cells were washed with PBS and incubated with 20 μL mouse anti-Smarca4 (BRG1) antibody (Cell Signaling #52251) or rabbit anti-Smarca2 (BRM) antibody (Sigma Aldrich HPA029981) in blocking solution (PBS with 10% FCS) for ca. 2-4 h at RT. For detection of the nuclei, 25 μL of 5 μg/mL Hoechst 33342 (stock 10 mg/mL in H2O; Invitrogen H1399) were added together with Alexa Fluor 647 goat anti-mouse IgG (Invitrogen A-21235) or Alexa Fluor 488 goat anti-rabbit IgG (Invitrogen A-11034) in blocking solution and incubated for 60 min at RT. The cell layer was washed with 25 μL PBS, the wells were filled with 25 μL PBS and the plates sealed with an adhesive sheet. The mean intensity at 488 or 647 nm in the nucleus was measured using an Opera Phenix Plus High-Content Screening System (Perkin Elmer), values were normalized to the background and DMSO control and DC50 values were calculated and analyzed using a four-parametric logistic model.

Another assay has as its target T2, SMARCA4 (Homo sapiens, UniProt P51532).
T2 construct: endogenous in cells; host or cells: RKO cells (CRL-2577, ATCC)
Briefly: SMARCA4 degradation analysis by imaging in RKO cells (DC50 A4). It is filed as cell-based. To be noted: tables 69, 70, 73, 76-78. The procedure:
as §1, §2, §3

T1 sequence (P51531 whole entry): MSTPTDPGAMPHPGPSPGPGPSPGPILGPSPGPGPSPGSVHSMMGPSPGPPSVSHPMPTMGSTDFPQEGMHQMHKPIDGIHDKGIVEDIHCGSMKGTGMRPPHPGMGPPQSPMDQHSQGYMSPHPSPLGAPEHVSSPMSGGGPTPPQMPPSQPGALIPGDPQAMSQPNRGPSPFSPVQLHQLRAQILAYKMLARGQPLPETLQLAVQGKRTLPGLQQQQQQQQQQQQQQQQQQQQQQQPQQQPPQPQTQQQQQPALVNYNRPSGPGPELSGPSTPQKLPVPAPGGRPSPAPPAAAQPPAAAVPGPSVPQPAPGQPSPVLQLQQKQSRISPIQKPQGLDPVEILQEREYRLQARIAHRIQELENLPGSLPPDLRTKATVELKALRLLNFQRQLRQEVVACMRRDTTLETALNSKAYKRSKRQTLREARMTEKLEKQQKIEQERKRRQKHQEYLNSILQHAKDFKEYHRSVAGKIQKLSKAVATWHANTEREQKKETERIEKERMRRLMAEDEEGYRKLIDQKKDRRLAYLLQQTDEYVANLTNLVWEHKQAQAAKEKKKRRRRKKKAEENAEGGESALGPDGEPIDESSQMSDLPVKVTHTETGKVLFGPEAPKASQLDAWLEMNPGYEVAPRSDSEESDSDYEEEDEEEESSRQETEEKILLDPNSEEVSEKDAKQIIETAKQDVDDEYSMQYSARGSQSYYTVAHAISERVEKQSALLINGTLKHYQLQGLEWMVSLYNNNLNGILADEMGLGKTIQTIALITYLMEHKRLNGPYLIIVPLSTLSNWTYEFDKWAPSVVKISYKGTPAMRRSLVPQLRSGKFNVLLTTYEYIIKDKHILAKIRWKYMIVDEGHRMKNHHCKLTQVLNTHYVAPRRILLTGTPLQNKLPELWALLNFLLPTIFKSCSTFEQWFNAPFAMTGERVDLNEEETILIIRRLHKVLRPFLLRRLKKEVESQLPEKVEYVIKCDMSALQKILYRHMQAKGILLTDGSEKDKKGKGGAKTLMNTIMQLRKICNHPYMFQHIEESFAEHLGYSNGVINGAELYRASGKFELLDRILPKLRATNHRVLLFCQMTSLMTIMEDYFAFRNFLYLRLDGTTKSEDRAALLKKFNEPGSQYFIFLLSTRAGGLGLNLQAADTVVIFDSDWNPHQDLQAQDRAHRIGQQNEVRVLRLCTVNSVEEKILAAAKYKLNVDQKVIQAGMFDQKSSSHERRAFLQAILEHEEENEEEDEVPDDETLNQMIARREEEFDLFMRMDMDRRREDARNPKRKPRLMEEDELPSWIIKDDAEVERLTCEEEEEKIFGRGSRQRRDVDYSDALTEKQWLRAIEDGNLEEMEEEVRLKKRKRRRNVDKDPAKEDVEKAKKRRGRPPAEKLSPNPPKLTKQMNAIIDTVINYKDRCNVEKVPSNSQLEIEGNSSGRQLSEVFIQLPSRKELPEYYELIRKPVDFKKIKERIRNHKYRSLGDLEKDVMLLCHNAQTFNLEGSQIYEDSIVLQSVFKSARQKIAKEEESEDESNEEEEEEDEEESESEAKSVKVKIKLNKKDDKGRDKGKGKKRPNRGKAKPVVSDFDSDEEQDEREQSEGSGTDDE
T2 sequence (P51532 whole entry): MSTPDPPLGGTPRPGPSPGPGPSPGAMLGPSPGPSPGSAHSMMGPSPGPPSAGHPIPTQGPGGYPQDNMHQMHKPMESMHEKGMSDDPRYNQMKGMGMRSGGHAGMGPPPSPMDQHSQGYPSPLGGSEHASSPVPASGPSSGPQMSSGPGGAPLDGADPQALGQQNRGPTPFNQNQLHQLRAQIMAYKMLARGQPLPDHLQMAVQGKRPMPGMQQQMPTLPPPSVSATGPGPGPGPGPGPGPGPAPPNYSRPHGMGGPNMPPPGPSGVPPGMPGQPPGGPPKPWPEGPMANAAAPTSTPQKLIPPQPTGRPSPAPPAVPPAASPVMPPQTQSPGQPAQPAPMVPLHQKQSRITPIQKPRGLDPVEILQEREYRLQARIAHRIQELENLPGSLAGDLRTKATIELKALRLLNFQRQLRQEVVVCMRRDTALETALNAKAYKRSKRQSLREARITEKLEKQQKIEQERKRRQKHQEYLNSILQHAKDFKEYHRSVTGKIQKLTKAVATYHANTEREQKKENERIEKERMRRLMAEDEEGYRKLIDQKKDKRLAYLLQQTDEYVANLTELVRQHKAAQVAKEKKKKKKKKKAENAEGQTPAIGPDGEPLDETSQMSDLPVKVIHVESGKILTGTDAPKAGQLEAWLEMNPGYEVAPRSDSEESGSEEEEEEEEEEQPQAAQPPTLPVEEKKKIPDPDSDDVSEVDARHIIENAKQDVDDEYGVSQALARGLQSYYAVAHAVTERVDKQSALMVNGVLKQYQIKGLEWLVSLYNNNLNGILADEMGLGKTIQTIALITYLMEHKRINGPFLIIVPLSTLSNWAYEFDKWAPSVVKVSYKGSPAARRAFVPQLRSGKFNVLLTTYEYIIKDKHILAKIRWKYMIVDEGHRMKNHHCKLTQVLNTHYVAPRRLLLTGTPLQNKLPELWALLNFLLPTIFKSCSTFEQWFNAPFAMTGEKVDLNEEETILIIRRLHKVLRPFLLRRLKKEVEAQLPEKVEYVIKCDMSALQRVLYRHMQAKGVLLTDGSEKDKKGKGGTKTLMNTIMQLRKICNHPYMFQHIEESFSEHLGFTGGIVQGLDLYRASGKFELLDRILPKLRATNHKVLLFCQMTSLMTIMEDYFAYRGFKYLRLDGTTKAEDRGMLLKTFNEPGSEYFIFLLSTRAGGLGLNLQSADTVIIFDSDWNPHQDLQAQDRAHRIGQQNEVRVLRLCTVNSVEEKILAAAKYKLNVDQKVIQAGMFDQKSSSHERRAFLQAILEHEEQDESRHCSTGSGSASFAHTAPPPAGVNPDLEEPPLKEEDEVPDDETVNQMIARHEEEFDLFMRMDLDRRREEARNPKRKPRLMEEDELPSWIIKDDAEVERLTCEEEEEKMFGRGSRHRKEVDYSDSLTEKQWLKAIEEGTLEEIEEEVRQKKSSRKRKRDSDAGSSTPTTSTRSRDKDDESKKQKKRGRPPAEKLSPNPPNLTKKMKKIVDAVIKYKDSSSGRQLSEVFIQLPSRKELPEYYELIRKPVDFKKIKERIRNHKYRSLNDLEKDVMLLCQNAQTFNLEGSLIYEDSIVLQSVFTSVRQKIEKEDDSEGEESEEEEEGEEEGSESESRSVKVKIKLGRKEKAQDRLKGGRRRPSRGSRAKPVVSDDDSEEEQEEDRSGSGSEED

Consider `CCn1c2cc(C3CCN(CCCCC[C@H](NC(=O)[C@@H]4C[C@@H](O)CN4C(=O)[C@@H](NC(=O)C4(F)CC4)C(C)(C)C)c4ccc(-c5scnc5C)cc4)CC3)ccc2n2c3cccc(Br)c3c(=O)nc12` [Compound 42ba], for which the figures for the DC50 at SMARCA2 and at SMARCA4 were 4 nM and 22 nM, respectively.

`Cc1ncsc1-c1ccc([C@H](COCCN2CCC(c3ccc4c(c3)n(C3CCCC3)c3nc(=O)c5c(Br)cccc5n43)CC2)NC(=O)[C@@H]2C[C@@H](O)CN2C(=O)[C@@H](NC(=O)C2(C)CC2)C(C)(C)C)cc1` [Compound 42bb]: the DC50 at SMARCA2 came to 17 nM; at SMARCA4, 142 nM.

On to `Cc1ncsc1-c1ccc([C@H](COCCN2CCC(c3ccc4c(c3)n(C3CCCC3)c3nc(=O)c5c(Br)cccc5n43)CC2)NC(=O)[C@@H]2C[C@@H](O)CN2C(=O)[C@@H](NC(=O)C2(C(F)(F)F)CC2)C(C)(C)C)cc1` [Compound 42bc], for which the figures for the DC50 at SMARCA2 and at SMARCA4 were 19 nM and 133 nM, respectively.

Turning to `Cc1ncsc1-c1ccc([C@H](COCCN2CCC(c3ccc4c(c3)n(C3CCCC3)c3nc(=O)c5c(Br)cccc5n43)CC2)NC(=O)[C@@H]2C[C@@H](O)CN2C(=O)[C@@H](NC(=O)C2(C3CC3)CC2)C(C)(C)C)cc1` [Compound 42bd], the results for the DC50 at SMARCA2 and at SMARCA4 were 11 nM and 64 nM, respectively.

In the case of `Cc1ncsc1-c1ccc([C@H](COCCN2CCC(c3ccc4c(c3)n(C3CCCC3)c3nc(=O)c5c(Br)cccc5n43)CC2)NC(=O)[C@@H]2C[C@@H](O)CN2C(=O)[C@@H](NC(=O)C2(C#N)CC2)C(C)(C)C)cc1` [Compound 42be], the DC50 at SMARCA2 came to 12 nM; on SMARCA4 it was 67 nM.

As for `COC(=O)C1(C(=O)N[C@H](C(=O)N2C[C@H](O)C[C@H]2C(=O)N[C@@H](COCCN2CCC(c3ccc4c(c3)n(C3CCCC3)c3nc(=O)c5c(Br)cccc5n43)CC2)c2ccc(-c3scnc3C)cc2)C(C)(C)C)CC1` [Compound 42bf], the half-maximal degradation concentration (DC50) was determined as 8 nM at SMARCA2 and 87 nM at SMARCA4.

Regarding `Cc1ncsc1-c1ccc([C@H](COCCN2CCC(c3ccc4c(c3)n(C3CCCC3)c3nc(=O)c5c(Br)cccc5n43)CC2)NC(=O)[C@@H]2C[C@@H](O)CN2C(=O)[C@@H](NC(=O)C23CCCCC2C3)C(C)(C)C)cc1` (stereo partly shown) [Compound 42bh], the half-maximal degradation concentration (DC50) at SMARCA2 turned out to be 6 nM; at SMARCA4 it was 153 nM.

Take `Cc1ncsc1-c1ccc([C@H](CCCN2CCC(c3ccc4c(c3)n(C3CCCC3)c3nc(=O)c5c(N)cccc5n43)CC2)NC(=O)[C@@H]2C[C@@H](O)CN2C(=O)[C@@H](NC(=O)C2(N3CCCC3)CC2)C(C)(C)C)cc1` [Compound 42bi]: the half-maximal degradation concentration (DC50) on SMARCA2 came out at 3 nM; at SMARCA4 it was 6 nM.

`CC(=O)O[C@@H]1C[C@@H](C(=O)N[C@@H](CCCCCN2CCC(c3ccc4c(c3)n(C3CCCC3)c3nc(=O)c5c(Br)cccc5n43)CC2)c2ccc(-c3scnc3C)cc2)N(C(=O)[C@@H](NC(=O)C2(F)CC2)C(C)(C)C)C1` [Compound 42bj]: the DC50 at SMARCA2 was 8 nM; at SMARCA4, 83 nM.

With `CCCCC(=O)O[C@@H]1C[C@@H](C(=O)N[C@@H](CC[C@H](C)CCN2CCC(c3ccc4c(c3)n(C3CCCC3)c3nc(=O)c5c(Br)cccc5n43)CC2)c2ccc(-c3scnc3C)cc2)N(C(=O)[C@@H](NC(=O)C2(F)CC2)C(C)(C)C)C1` [Compound 42bk], the 50% degradation concentration (DC50) on SMARCA2 worked out at 3 nM; at SMARCA4 it was 60 nM.

As to `Cc1ncsc1-c1ccc([C@H](CCCCCN2CCC(c3ccc4c(c3)n(C3CCCC3)c3nc(=O)c5c(Br)cccc5n43)CC2)NC(=O)[C@@H]2C[C@@H](O)CN2C(=O)[C@@H](NC(=O)C2(F)CC2)C(C)(C)C2CC2)cc1` [Compound 42c], the DC50 on SMARCA2 came out at 0.7 nM; at SMARCA4 it was 11 nM.

For `Cc1ncsc1-c1ccc([C@H](CC[C@@H](C)CCN2CCC(c3ccc4c(c3)n(C3CCCC3)c3nc(=O)c5c(Br)cccc5n43)CC2)NC(=O)[C@@H]2C[C@@H](O)CN2C(=O)[C@@H](NC(=O)C2(F)CC2)C(C)(C)C)cc1` [Compound 42d], the DC50 was 0.7 nM at SMARCA2 and 7 nM on SMARCA4.

`Cc1ncsc1-c1ccc([C@H](CCC(O)CCN2CCC(c3ccc4c(c3)n(C3CCCC3)c3nc(=O)c5c(Br)cccc5n43)CC2)NC(=O)[C@@H]2C[C@@H](O)CN2C(=O)[C@@H](NC(=O)C2(F)CC2)C(C)(C)C)cc1` (stereo partly shown) [Compound 42e]: the DC50 worked out at 4.1 nM on SMARCA2 and 80 nM at SMARCA4.

Regarding `Cc1ncsc1-c1ccc([C@H](CCCCCN2CCC(c3ccc4c(c3)n([C@H]3CC[C@@H](O)C3)c3nc(=O)c5c(Br)cccc5n43)CC2)NC(=O)[C@@H]2C[C@@H](O)CN2C(=O)[C@@H](NC(=O)C2(F)CC2)C(C)(C)C)cc1` [Compound 42f], the half-maximal degradation concentration (DC50) at SMARCA2 came out at 2 nM; at SMARCA4, 46 nM.

Turning to `Cc1ncsc1-c1ccc([C@H](CCC(C)(C)CCN2CCC(c3ccc4c(c3)n(C3CCCC3)c3nc(=O)c5c(Br)cccc5n43)CC2)NC(=O)[C@@H]2C[C@@H](O)CN2C(=O)[C@@H](NC(=O)C2(F)CC2)C(C)(C)C)cc1` [Compound 42g], the DC50 on SMARCA2 was 3 nM; at SMARCA4, 40 nM.

As to `Cc1ncsc1-c1ccc([C@H](CCCCCN2CCC(c3ccc4c(c3)n(C3CCCC3)c3nc(=O)c5c(Br)cccc5n43)CC2)NC(=O)[C@@H]2C[C@@H](O)CN2C(=O)[C@@H](NC(=O)C2(F)CC2)C(C)(C)C)cc1` [Compound 42h], the DC50 on SMARCA2 was determined as 0.3 nM; at SMARCA4, 4 nM.

Turning to `Cc1ncsc1-c1ccc([C@H](COC(C)(C)CN2CCCN(c3ccc4c(c3)n(C3CCCC3)c3nc(=O)c5c(Br)cccc5n43)CC2)NC(=O)[C@@H]2C[C@@H](O)CN2C(=O)[C@@H](NC(=O)C2(F)CC2)C(C)(C)C)cc1` [Compound 42i], the DC50 on SMARCA2 worked out at 9 nM; at SMARCA4, 24 nM.

`CCC(C)(C)[C@H](NC(=O)C1(F)CC1)C(=O)N1C[C@H](O)C[C@H]1C(=O)N[C@@H](COC(C)(C)CN1CCN(c2ccc3c(c2)n(C2CCCC2)c2nc(=O)c4c(Br)cccc4n32)CC1)c1ccc(-c2scnc2C)cc1` [Compound 42j]: the DC50 was 4 nM on SMARCA2 and above 833 nM at SMARCA4.

Consider `Cc1ncsc1-c1ccc([C@H](COC(C)(C)CN2CCC(c3ccc4c(c3)n(C3CCCC3)c3nc(=O)c5c(Br)cccc5n43)CC2)NC(=O)[C@@H]2C[C@@H](O)CN2C(=O)[C@@H](NC(=O)C2(F)CC2)C(C)(C)C)cc1` [Compound 42l], for which the DC50 was 3 nM at SMARCA2 and above 833 nM at SMARCA4.

As to `Cc1ncsc1-c1ccc([C@H](CO[C@H](C)CN2CCC(c3ccc4c(c3)n(C3CCCC3)c3nc(=O)c5c(Br)cccc5n43)CC2)NC(=O)[C@@H]2C[C@@H](O)CN2C(=O)[C@@H](NC(=O)C2(F)CC2)C(C)(C)C)cc1` [Compound 42m], the half-maximal degradation concentration (DC50) at SMARCA2 is 4 nM; on SMARCA4 it was above 833 nM.

Turning to `Cc1ncsc1-c1ccc([C@H](COC(C)(C)CN2CCC(c3ccc4c(c3)n(C3CCCC3)c3nc(=O)c5c(Br)cccc5n43)CC2)NC(=O)[C@@H]2C[C@@H](O)CN2C(=O)[C@@H](NC(=O)C2(F)CC2)C2(C)CCCC2)cc1` [Compound 42n], the DC50 at SMARCA2 is 3 nM; at SMARCA4, 800 nM.

Regarding `Cc1ncsc1-c1ccc([C@H](COCCN2CCC(c3ccc4c(c3)n(C3CCCC3)c3nc(=O)c5c(Br)cccc5n43)CC2)NC(=O)[C@@H]2C[C@@H](O)CN2C(=O)[C@@H](NC(=O)C2(F)CC2)C(C)(C)C)cc1` [Compound 42o], the DC50 at SMARCA2 was 5 nM; on SMARCA4, 90 nM.

For `Cc1ncsc1-c1ccc([C@H](CO[C@H](C)CN2CCC(c3ccc4c(c3)n(C3C[C@H](C)[C@@H](C)C3)c3nc(=O)c5c(Br)cccc5n43)CC2)NC(=O)[C@@H]2C[C@@H](O)CN2C(=O)[C@@H](NC(=O)C2(F)CC2)C(C)(C)C)cc1` [Compound 42p], the DC50 at SMARCA2 was 13 nM; at SMARCA4, above 833 nM.

Regarding `Cc1ncsc1-c1ccc([C@H](CCCN2CCC(c3ccc4c(c3)n(C3CCCC3)c3nc(=O)c5c(Br)cccc5n43)CC2)NC(=O)[C@@H]2C[C@@H](O)CN2C(=O)[C@@H](NC(=O)C2(F)CC2)C(C)(C)C)cc1` [Compound 42q], the DC50 on SMARCA2 amounted to 0.4 nM; at SMARCA4, 1 nM.

In the case of `Cc1ncsc1-c1ccc([C@H](CO[C@H](C)CN2CCC(c3ccc4c(c3)n(C3CCCC3)c3nc(=O)c5c(Cl)cccc5n43)CC2)NC(=O)[C@@H]2C[C@@H](O)CN2C(=O)[C@@H](NC(=O)C2(F)CC2)C23CC4CC(CC(C4)C2)C3)cc1` [Compound 42r], the DC50 was determined as 2 nM on SMARCA2 and 27 nM on SMARCA4.

Consider `Cc1ncsc1-c1ccc([C@H](COCCCCCN2CCC(c3ccc4c(c3)n(C3CCCC3)c3nc(=O)c5c(Br)cccc5n43)CC2)NC(=O)[C@@H]2C[C@@H](O)CN2C(=O)[C@@H](NC(=O)C2(F)CC2)C(C)(C)C)cc1` [Compound 42s], for which the DC50 at SMARCA2 worked out at 0.7 nM; at SMARCA4 it was 8 nM.

For the origin of these results see US20250049929A1, “NOVEL TETRAHYDROQUINOLINES AND PROTEOLYSIS TARGETING CHIMERA (PROTACS) COMPRISING THEM AS DEGRADERS OF SMARCA” (Boehringer Ingelheim International GmbH, priority 2021, published 2025).
